Assay results: BindingDB's records for doi:10.1124/jpet.102.047092 (Case Western Reserve University, 2003)

Columns and labels:
[1] = biological target: Metabotropic glutamate receptor 8 (Rattus norvegicus, UniProt P70579)
[2] = biological target: Metabotropic glutamate receptor 6 (Rattus norvegicus, UniProt P35349)
[3] = biological target: Neuronal acetylcholine receptor subunit alpha-2 (Homo sapiens, UniProt Q15822)
[4] = biological target: Neuronal acetylcholine receptor subunit alpha-3 (Homo sapiens, UniProt P32297)
[5] = biological target: Beta-1 adrenergic receptor (Rattus norvegicus, UniProt P18090)
[6] = biological target: Histamine H4 receptor (Homo sapiens, UniProt Q9H3N8)
[7] = biological target: Histamine H1 receptor (Homo sapiens, UniProt P35367)
[8] = biological target: Metabotropic glutamate receptor 1 (Rattus norvegicus, UniProt P23385)
Metabotropic glutamate receptor 1, sequence (P23385 whole entry): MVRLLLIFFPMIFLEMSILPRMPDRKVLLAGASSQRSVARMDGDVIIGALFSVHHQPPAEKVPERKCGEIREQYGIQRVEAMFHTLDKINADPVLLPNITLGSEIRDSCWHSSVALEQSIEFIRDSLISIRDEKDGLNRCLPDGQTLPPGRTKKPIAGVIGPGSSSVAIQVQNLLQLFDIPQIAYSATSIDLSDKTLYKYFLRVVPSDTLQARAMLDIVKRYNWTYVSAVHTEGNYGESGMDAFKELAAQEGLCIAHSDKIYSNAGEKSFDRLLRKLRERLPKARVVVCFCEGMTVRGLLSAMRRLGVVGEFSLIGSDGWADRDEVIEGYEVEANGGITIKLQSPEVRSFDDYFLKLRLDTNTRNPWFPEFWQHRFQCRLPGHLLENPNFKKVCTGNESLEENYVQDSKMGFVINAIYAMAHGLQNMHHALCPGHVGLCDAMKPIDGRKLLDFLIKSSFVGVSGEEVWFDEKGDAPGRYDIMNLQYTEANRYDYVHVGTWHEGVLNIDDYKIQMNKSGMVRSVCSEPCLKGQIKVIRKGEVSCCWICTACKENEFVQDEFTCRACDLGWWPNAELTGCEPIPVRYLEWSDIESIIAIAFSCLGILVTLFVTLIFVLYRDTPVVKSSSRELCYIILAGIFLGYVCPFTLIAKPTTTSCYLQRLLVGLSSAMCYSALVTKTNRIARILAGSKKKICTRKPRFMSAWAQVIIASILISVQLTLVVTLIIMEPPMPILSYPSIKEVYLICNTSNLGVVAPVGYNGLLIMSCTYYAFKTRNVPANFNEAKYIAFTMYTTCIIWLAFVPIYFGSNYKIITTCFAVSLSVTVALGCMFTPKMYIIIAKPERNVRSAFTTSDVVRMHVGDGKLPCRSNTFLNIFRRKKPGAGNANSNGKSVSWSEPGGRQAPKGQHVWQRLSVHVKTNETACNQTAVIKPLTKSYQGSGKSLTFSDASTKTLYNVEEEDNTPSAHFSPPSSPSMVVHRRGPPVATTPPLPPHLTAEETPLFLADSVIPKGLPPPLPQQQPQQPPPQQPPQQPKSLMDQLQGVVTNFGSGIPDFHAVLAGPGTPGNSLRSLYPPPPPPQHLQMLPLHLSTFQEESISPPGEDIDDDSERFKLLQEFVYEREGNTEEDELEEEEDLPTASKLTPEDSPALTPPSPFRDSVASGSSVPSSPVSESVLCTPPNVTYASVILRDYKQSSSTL

[9] = biological target: Histamine H2 receptor (Homo sapiens, UniProt P25021)
[10] = biological target: Metabotropic glutamate receptor 2 (Rattus norvegicus) (UniProt P31421)
[11] = biological target: Neuronal acetylcholine receptor subunit alpha-4 (Rattus norvegicus, UniProt P09483)
[12] = biological target: Metabotropic glutamate receptor 4 (Rattus norvegicus, UniProt P31423)
[13] = biological target: Nischarin (Rattus norvegicus, UniProt Q4G017)
Nischarin, sequence (Q4G017 whole entry): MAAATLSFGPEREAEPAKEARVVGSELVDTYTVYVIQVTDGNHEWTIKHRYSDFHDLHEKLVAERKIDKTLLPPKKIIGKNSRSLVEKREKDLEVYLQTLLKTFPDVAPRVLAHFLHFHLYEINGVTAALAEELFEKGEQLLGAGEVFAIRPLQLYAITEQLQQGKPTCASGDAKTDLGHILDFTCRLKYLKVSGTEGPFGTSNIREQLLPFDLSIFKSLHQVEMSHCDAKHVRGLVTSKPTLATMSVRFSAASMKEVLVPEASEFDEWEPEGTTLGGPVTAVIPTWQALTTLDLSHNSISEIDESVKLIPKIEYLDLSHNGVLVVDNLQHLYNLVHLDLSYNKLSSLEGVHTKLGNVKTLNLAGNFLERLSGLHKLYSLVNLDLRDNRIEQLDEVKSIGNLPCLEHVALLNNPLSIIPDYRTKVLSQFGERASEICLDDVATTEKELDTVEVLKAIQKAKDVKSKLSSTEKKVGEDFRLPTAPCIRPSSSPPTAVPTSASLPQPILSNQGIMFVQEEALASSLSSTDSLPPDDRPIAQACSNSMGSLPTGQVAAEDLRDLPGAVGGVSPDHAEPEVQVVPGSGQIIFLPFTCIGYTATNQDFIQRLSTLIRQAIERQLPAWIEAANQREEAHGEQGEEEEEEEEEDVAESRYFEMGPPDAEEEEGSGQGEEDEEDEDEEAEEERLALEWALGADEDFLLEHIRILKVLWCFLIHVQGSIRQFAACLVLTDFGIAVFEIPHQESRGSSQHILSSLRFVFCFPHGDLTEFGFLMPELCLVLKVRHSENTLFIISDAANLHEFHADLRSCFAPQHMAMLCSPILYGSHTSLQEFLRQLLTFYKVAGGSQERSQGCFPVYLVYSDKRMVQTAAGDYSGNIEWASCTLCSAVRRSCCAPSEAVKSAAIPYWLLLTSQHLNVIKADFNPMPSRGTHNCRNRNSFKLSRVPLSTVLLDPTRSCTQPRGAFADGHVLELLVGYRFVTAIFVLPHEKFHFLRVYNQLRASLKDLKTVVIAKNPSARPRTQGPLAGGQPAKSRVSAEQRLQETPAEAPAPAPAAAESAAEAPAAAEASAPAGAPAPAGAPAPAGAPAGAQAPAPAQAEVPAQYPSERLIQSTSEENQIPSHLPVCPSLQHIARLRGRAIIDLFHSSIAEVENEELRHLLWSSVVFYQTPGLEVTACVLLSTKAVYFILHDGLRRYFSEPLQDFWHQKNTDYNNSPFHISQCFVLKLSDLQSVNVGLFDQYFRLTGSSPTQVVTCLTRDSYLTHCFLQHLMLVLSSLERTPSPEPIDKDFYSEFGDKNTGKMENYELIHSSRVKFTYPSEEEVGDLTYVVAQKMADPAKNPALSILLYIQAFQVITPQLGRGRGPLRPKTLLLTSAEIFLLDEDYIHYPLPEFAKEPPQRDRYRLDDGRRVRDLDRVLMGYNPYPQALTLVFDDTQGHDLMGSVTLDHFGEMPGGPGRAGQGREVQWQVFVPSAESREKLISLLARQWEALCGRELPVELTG

[14] = biological target: Neuronal acetylcholine receptor subunit alpha-4 (Homo sapiens, UniProt P43681)
[15] = biological target: Cannabinoid receptor 1 (Rattus norvegicus, UniProt P20272)
[16] = biological target: Metabotropic glutamate receptor 5 (Rattus norvegicus, UniProt P31424)
[17] = biological target: Voltage-dependent L-type calcium channel subunit alpha-1C (Rattus norvegicus, UniProt P22002)

Metabotropic glutamate receptor 8, sequence (P70579 whole entry): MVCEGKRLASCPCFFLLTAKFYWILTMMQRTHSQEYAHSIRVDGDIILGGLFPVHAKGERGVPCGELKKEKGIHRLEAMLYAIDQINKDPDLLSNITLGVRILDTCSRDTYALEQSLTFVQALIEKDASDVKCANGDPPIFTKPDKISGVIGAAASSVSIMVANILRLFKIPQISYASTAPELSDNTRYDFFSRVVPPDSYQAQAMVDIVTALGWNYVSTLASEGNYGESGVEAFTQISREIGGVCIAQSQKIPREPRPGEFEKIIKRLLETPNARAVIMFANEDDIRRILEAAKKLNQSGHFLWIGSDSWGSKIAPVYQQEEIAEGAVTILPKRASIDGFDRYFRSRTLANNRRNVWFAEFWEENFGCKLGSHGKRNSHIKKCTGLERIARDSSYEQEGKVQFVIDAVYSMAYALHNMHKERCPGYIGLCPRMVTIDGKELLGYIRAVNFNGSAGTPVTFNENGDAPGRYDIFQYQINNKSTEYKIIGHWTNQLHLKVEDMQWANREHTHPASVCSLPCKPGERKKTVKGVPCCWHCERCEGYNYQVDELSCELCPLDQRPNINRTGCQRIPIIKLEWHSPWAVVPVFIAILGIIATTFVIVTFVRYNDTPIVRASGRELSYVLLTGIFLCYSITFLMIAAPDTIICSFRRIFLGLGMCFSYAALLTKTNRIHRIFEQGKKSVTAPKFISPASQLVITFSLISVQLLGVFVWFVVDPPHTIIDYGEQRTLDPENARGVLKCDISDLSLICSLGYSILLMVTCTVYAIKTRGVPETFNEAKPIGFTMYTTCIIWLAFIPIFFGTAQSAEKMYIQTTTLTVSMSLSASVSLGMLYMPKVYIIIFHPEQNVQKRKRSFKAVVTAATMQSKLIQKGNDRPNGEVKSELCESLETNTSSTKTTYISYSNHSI
Metabotropic glutamate receptor 6, sequence (P35349 whole entry): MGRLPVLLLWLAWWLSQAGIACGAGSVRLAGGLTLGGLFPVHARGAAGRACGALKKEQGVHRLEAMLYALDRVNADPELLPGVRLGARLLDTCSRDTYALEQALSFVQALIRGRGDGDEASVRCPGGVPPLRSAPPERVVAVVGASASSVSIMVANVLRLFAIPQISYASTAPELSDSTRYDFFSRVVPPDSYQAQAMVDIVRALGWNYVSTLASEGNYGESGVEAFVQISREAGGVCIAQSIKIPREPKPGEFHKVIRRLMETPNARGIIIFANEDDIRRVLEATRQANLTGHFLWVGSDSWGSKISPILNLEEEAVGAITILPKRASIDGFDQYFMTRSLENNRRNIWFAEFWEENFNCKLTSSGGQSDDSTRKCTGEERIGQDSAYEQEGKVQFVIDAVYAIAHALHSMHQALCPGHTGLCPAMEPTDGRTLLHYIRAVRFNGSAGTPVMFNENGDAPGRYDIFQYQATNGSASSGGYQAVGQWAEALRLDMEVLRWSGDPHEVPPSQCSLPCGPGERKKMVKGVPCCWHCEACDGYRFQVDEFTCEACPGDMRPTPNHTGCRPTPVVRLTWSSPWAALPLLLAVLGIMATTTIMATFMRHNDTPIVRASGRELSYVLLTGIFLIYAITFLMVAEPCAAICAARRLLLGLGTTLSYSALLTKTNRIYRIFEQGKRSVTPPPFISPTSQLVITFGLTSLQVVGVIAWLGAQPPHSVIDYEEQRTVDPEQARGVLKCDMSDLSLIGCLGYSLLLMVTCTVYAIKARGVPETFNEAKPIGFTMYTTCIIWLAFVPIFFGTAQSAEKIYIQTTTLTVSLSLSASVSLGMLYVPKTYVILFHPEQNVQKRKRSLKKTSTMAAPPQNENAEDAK
Neuronal acetylcholine receptor subunit alpha-2, sequence (Q15822 whole entry): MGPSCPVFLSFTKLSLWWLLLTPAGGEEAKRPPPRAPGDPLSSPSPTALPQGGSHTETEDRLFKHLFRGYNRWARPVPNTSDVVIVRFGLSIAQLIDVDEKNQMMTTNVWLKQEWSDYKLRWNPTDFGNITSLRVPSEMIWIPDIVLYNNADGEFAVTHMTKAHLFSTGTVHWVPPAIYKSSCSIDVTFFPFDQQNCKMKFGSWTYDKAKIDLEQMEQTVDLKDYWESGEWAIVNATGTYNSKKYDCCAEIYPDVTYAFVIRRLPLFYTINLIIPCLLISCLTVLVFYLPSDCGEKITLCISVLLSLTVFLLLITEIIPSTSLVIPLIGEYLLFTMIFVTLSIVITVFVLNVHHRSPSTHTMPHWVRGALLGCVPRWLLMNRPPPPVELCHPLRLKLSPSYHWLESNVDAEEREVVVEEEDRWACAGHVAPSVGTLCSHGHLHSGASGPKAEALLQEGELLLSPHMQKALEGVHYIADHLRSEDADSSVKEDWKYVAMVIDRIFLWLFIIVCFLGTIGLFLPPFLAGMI

SMILES	EC50 [1]	EC50 [2]	Ki [3]	Ki [4]	Ki [5]	Ki [6]	Ki [7]	EC50 [8]	Ki [9]	EC50 [10]	Ki [11]	EC50 [12]	Ki [13]	Ki [14]	Ki [15]	EC50 [16]	Ki [17]
N[C@@H](CCP(=O)(O)O)C(=O)O	1.26 µM	0.398 µM	–	–	–	–	–	–	–	–	–	–	–	–	–	–	–
N[C@@H](CCS(=O)(=O)O)C(=O)O [L-homocysteic acid]	> 10 µM	7.94 µM	> 10 µM	> 10 µM	> 10 µM	> 10 µM	> 10 µM	> 10 µM	> 10 µM	> 10 µM	> 10 µM	> 10 µM	> 10 µM	> 10 µM	> 10 µM	6.31 µM	> 10 µM
